From patent US10689383B2, “Optionally fused heterocyclyl-substituted derivatives of pyrimidine useful for the treatment of inflammatory, metabolic, oncologic and autoimmune diseases” (NUEVOLUTION A/S, priority 2014, dated 2020)

Experiments:
[1] = target: T1, human RORγt (Ligand Binding Domain) (Homo sapiens, UniProt P51449); assay: Fluorescence Polarization (FP) Assay; settings: Fluorescence Polarization (FP) Assay; values given as upper bounds of activity ranges; read-out: FP activity range
T1 construct: purchased Crelux (Planegg, Germany) batch no PC5032-1
T1 sequence (P51449 269-508 limits assumed): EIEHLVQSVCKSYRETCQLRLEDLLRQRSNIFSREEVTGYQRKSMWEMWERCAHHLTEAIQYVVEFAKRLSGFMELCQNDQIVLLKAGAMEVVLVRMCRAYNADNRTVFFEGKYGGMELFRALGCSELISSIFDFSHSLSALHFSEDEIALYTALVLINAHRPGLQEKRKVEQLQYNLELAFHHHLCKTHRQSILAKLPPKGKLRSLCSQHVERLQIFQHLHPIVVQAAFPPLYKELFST
Experimental: (§1) The activity of the compounds was evaluated using a Fluorescence Polarization (FP) Assay and, in most cases, a Th17 Assay and/or RORγ Reporter assay (also referred to as Gal4 assay). The FP assay is an in vitro assay monitoring binding within the ligand binding pocket. The RORγ and the Th17 assays are both cell-based assays monitoring functional activity of the compound assayed.
The total volume was 25 μl, in a black Perkin Elmer OptiPlate. As negative control, 1 μl DMSO was used. […] The probe is a fluorescently labeled (TAMRA) RORγt ligand identified by Nuevolution with a total molecular weight of 910 g/mole as shown in Graph A in FIG. 1.

[2] = target: T2, yeast Gal4-DNA binding domain fused to the ligand binding domain of human RORγ (Homo sapiens, UniProt P51449); assay: RORγ Reporter Assay (Gal4); assay type: cell-based; settings: values given as lower bounds of ranges; for Gal4 activity range @ 1 μM (% inhibition): RORγ Reporter Assay (Gal4) at 1 μM; for Gal4 activity range @ 0.1 μM (% inhibition): RORγ Reporter Assay (Gal4) at 0.1 μM
T2 construct: host or cells: HEK293t
T2 sequence (P51449 269-508 limits assumed): T1 sequence (P51449 269-508 limits assumed)
Experimental: as §1
Cell-based RORγ functional assays were performed using a commercially available assay product (INDIGO Biosciences, State College, Pa., USA; product # IB04001). The RORγ reporter cells are HEK293t cells transfected with one vector that provides high level constitutive expression of a hybrid protein comprised of the yeast Gal4-DNA binding domain fused to the ligand binding domain of human RORγ, and a second vector comprising the firefly luciferase cDNA functionally linked to the upstream activation sequence (UAS) of yeast Gal4. A suspension of RORγ Reporter Cells was prepared using the protocol and culture medium provided in the kit product, and 100 μl of the Reporter Cell suspension was then dispensed into wells of a white, collagen-treated, 96-well assay plate. Concentrated stocks of test compounds were prepared in DMSO, then further diluted using media provided in the kit to generate ‘2×-concentration’ treatment media. 100 μl of medium for each respective treatment concentration dispensed into triplicate assay wells, thereby combining with the reporter cells. All media formulations contained 10% charcoal stripped Fetal Bovine Serum, but are otherwise proprietary to INDIGO Biosciences. Final treatment concentrations for each test compound were 1,000 nM and 100 nM, each with 0.1% residual DMSO. Separate control treatments were media supplemented with vehicle only (0.1% DMSO) to determine the constitutive level of RORγ activity in the reporter cells, and the reference inverse-agonist ursolic acid (f.c. 6,000 nM to 8.2 nM in 3-fold decrements) to establish a positive control inverse-agonist dose response. Assay plates were placed in a 37° C., 5% CO2, 85% humidity incubator for 24 hour. Treatment media were then discarded, 100 μl of luciferase detection reagent was added to each well, and relative light units (RLUs) were quantified from each assay well using a plate reading luminometer. Values of average RLU+/−standard deviation were computed for all treatment sets, followed by the calculations of fold-reduction: [Average RLUVehicle/Average RLUTest Cmpd]. Percent-reduction of RORγ activity in response to respective test compound treatments was calculated: [100*(1−[Ave RLUTest Cmpd/Ave RLUVehicle)] where the theoretical minimum reduction (0% reduction) derives from Vehicle treatment only, no treatment compound.

## NC(=O)Cc1ccc(CNc2ncnc(N3C[C@H](F)C[C@@H]3c3ccc(C(F)(F)F)cc3)c2F)cc1 (racemic) [Example 241, 2-[4-[[[5-fluoro-6-[(2R,4R)-4-fluoro-2-[4-(trifluoromethyl)phenyl]pyrrolidin-1-yl]pyrimidin-4-yl]amino]methyl]phenyl]acetamide AND 2-[4-[[[5-fluoro-6-[(2S,4S)-4-fluoro-2-[4-(trifluoromethyl)phenyl]pyrrolidin-1-yl]pyrimidin-4-yl]amino]methyl]phenyl]acetamide]
[1]
  IC50: < 1000 nM

## NC(=O)Cc1ccc(CNc2ncnc(N3C[C@H](F)C[C@H]3c3ccc(C(F)(F)F)cc3)c2F)cc1 (racemic) [Example 242, 2-[4-[[[5-fluoro-6-[(2S,4R)-4-fluoro-2-[4-(trifluoromethyl)phenyl]pyrrolidin-1-yl]pyrimidin-4-yl]amino]methyl]phenyl]acetamide AND 2-[4-[[[5-fluoro-6-[(2R,4S)-4-fluoro-2-[4-(trifluoromethyl)phenyl]pyrrolidin-1-yl]pyrimidin-4-yl]amino]methyl]phenyl]acetamide]
[1]
  IC50: < 2000 nM

## CC(C)(C)C[C@@H](Nc1ncnc(N2CCC[C@@H]2c2ccc(C(F)(F)F)cc2)c1F)C(N)=O (single isomer, unassigned) [Example 5, (2R)-2-[[5-fluoro-6-[(2R)-2-[4-(trifluoromethyl)phenyl]pyrrolidin-1-yl]pyrimidin-4-yl]amino]-4,4-dimethyl-pentanamide or (2R)-2-[[5-fluoro-6-[(2S)-2-[4-(trifluoromethyl)phenyl]pyrrolidin-1-yl]pyrimidin-4-yl]amino]-4,4-dimethyl-pentanamide]
[1]
  IC50: < 500 nM

## CC(C)(C)CC(Nc1ncnc(N2CCCC2c2ccc3ncccc3c2)c1F)C(N)=O (stereo in doubt) [Example 23, (2R)-2-[[5-fluoro-6-[2-(6-quinolyl)pyrrolidin-1-yl]pyrimidin-4-yl]amino]-4,4-dimethyl-pentanamide]
[1]
  IC50: < 500 nM

## CC(C)(C)CC(Nc1ncnc(N2CCCC2c2ccc3c(c2)OCCO3)c1F)C(N)=O (stereo in doubt) [Example 24, (2R)-2-[[6-[2-(2,3-dihydro-1,4-benzodioxin-6-yl)pyrrolidin-1-yl]-5-fluoro-pyrimidin-4-yl]amino]-4,4-dimethyl-pentanamide]
[1]
  IC50: < 500 nM

## CCC(C(=O)NCc1ccoc1C(N)=O)n1ccc2c(N3CCCC3c3ccc(-c4ccccc4)cc3)ncnc21 (stereo not drawn) [Example 4, 3-[[2-[4-[2-(4-phenylphenyl)pyrrolidin-1-yl]pyrrolo[2,3-d]pyrimidin-7-yl]butanoylamino]methyl]furan-2-carboxamide]
[1]
  IC50: < 500 nM

## NC(=O)[C@@H](Cc1cc(F)c(F)cc1F)Nc1ncnc(N2CCCC2c2nc3ccccc3s2)c1F (stereo partly drawn) [Example 9, (2R)-2-[[6-[2-(1,3-benzothiazo1-2-yl)pyrrolidin-1-yl]-5-fluoro-pyrimidin-4-yl]amino]-3-(2,4,5-trifluorophenyl)propanamide]
[1]
  IC50: < 500 nM

## CC(C)(C)C[C@@H](Nc1ncnc(N2CCCC2c2ccc(Cl)cc2Cl)c1F)C(N)=O (stereo partly drawn) [Example 11, (2R)-2-[[6-[2-(2,4-dichlorophenyl)pyrrolidin-1-yl]-5-fluoro-pyrimidin-4-yl]amino]-4,4-dimethyl-pentanamide]
[1]
  IC50: < 500 nM

## Cc1nc(N[C@H](CC(C)(C)C)C(N)=O)c(C)c(N2CCCC2c2ccc(C(F)(F)F)cc2)n1 (stereo partly drawn) [Example 15, (2R)-2-[[2,5-dimethyl-6-[2-[4-(trifluoromethyl)phenyl]pyrrolidin-1-yl]pyrimidin-4-yl]amino]-4,4-dimethyl-pentanamide]
[1]
  IC50: < 10000 nM

## CC(C)(C)CCNc1ncnc(N2CCCC2c2ccc(C(F)(F)F)cc2)c1F (stereo not drawn) [Example 21, N-(3,3-dimethylbutyl)-5-fluoro-6-[2-[4-(trifluoromethyl)phenyl]pyrrolidin-1-yl]pyrimidin-4-amine]
[1]
  IC50: < 10000 nM

## NC(=O)Cc1ccc(COc2ncnc(N3CCCC3c3ccc(C(F)(F)F)nc3)c2F)cc1 (stereo not drawn) [Example 84, 2-[4-[[5-fluoro-6-[2-[6-(trifluoromethyl)-3-pyridyl]pyrrolidin-1-yl]pyrimidin-4-yl]oxymethyl]phenyl]acetamide]
[2]
  Gal4 activity range @ 1 μM (% inhibition): >20 % inhibition

## NC(=O)Cc1ncc(COc2ncnc(N3CCCC3c3ccc(C(F)(F)F)cc3)c2F)cn1 (stereo not drawn) [Example 86, 2-[5-[[5-fluoro-6-[2-[4-(trifluoromethyl)phenyl]pyrrolidin-1-yl]pyrimidin-4-yl]oxymethyl]pyrimidin-2-yl]acetamide]
[2]
  Gal4 activity range @ 1 μM (% inhibition): >20 % inhibition

## NC(=O)Cc1ncc(CNc2ncnc(N3CCCC3c3ccc(C(F)(F)F)cc3)c2F)cn1 (stereo not drawn) [Example 87, 2-[5-[[[5-fluoro-6-[2-[4-(trifluoromethyl)phenyl]pyrrolidin-1-yl]pyrimidin-4-yl]amino]methyl]pyrimidin-2-yl]acetamide]
[2]
  Gal4 activity range @ 1 μM (% inhibition): >20 % inhibition

## Cc1ccc(CNc2ncnc(-n3nncc3-c3ccc(C(F)(F)F)cc3)c2F)cn1 [Example 96, 5-fluoro-N-[(6-methyl-3-pyridyl)methyl]-6-[5-[4-(trifluoromethyl)phenyl]triazol-1-yl]pyrimidin-4-amine]
[2]
  Gal4 activity range @ 0.1 μM (% inhibition): >0 % inhibition
  Gal4 activity range @ 1 μM (% inhibition): >20 % inhibition

## COc1nc(C)ccc1CNc1ncnc(N2CCCC2c2ccc(C(F)(F)F)cc2)c1F (stereo not drawn) [Example 99, 5-fluoro-N-[(2-methoxy-6-methyl-3-pyridyl)methyl]-6-[2-[4-(trifluoromethyl)phenyl]pyrrolidin-1-yl]pyrimidin-4-amine]
[2]
  Gal4 activity range @ 0.1 μM (% inhibition): >20 % inhibition
  Gal4 activity range @ 1 μM (% inhibition): >50 % inhibition

## Cc1ccc(CNc2ncnc(N3CCCC3c3ccc(C(F)(F)F)cc3O)c2F)cn1 (stereo not drawn) [Example 104, 2-[1-[5-fluoro-6-[(6-methyl-3-pyridyl)methylamino]pyrimidin-4-yl]pyrrolidin-2-yl]-5-(trifluoromethyl)pheno1]
[2]
  Gal4 activity range @ 0.1 μM (% inhibition): >0 % inhibition
  Gal4 activity range @ 1 μM (% inhibition): >20 % inhibition

## Cc1nc(CNc2ncnc(N3CCCC3c3ccc(C(F)(F)F)cc3)c2F)ccc1C(C)O (stereo not drawn) [Example 112, 1-[6-[[[5-fluoro-6-[2-[4-(trifluoromethyl)phenyl]pyrrolidin-1-yl]pyrimidin-4-yl]amino]methyl]-2-methyl-3-pyridyl]ethanol]
[2]
  Gal4 activity range @ 0.1 μM (% inhibition): >0 % inhibition
  Gal4 activity range @ 1 μM (% inhibition): >20 % inhibition

## O=C(O)Cc1ccc(CNc2ncnc(N3CCC[C@@H]3c3ccc(C(F)(F)F)cc3)c2F)cc1 [Example 117, 2-[4-[[[5-fluoro-6-[(2R)-2-[4-(trifluoromethyl)phenyl]pyrrolidin-1-yl]pyrimidin-4-yl]amino]methyl]phenyl]acetic acid]
[2]
  Gal4 activity range @ 0.1 μM (% inhibition): >50 % inhibition

## O=C(c1ccncc1)N1CCC(Nc2ncnc(N3CCCC3c3ccc(C(F)(F)F)cc3)c2F)C1 (stereo not drawn) [Example 121, [3-[[5-fluoro-6-[2-[4-(trifluoromethyl)phenyl]pyrrolidin-1-yl]pyrimidin-4-yl]amino]pyrrolidin-1-yl]-(4-pyridyl)methanone]
[2]
  Gal4 activity range @ 0.1 μM (% inhibition): >20 % inhibition
  Gal4 activity range @ 1 μM (% inhibition): >50 % inhibition

## O=C1CCCN1Cc1ccc(CNc2ncnc(N3CCCC3c3ccc(C(F)(F)F)cc3)c2F)cc1 (stereo not drawn) [Example 124, 1-[[4-[[[5-fluoro-6-[2-[4-(trifluoromethyl)phenyl]pyrrolidin-1-yl]pyrimidin-4-yl]amino]methyl]phenyl]methyl] pyrrolidin-2-one]
[2]
  Gal4 activity range @ 1 μM (% inhibition): >20 % inhibition

## NC(=O)Cc1ccc(CNc2ncnc(N3CCCC3c3ccccc3)c2F)cc1 (stereo not drawn) [Example 279, 2-[4-[[[5-fluoro-6-(2-phenylpyrrolidin-1-yl)pyrimidin-4-yl]amino]methyl]phenyl]acetamide]
[2]
  Gal4 activity range @ 0.1 μM (% inhibition): >20 % inhibition
  Gal4 activity range @ 1 μM (% inhibition): >50 % inhibition
